Assay results reported in patent publication US4454158A, “Allyl amine MAO inhibitors” (Merrell Toraude et Compagnie, priority 1981, dated 1984).
One block for each molecule: values may come before it.

Assays:
MAO [1] = assay: Inhibition of MAO - In vitro (14C p-tyramine substrate, partially purified rat brain mitochondria); format: biochemical; conditions: tested as hydrochloride salt, read-out: IC50 (MAO inhibitory activity - In vitro)
Description: (A) The ability of a compound of Formula I or II to inhibit MAO can be determined in vitro by the method of A. Christmas et al, Br. J. Pharmacol. 45, 490 (1972) in partially purified mitochondria from rat brain using ^14 C p-tyramine as the substrate.

MAO-B versus MAO-A = assay: Selectivity of MAO inhibitors - In vitro (14C 5-hydroxytryptamine for MAO-A, 14C phenethylamine for MAO-B); format: biochemical, rat; conditions: for Selectivity (ratio of inhibitory activity against MAO-B versus MAO-A): in vitro, rat brain mitochondria
Protocol: Mitochondria are prepared from rat brain by homogenation in phosphate buffer (0.1 M, pH 7.2) followed by differential centrifugation. The mitochondria are suspended in the same buffer, the test compound is added at the desired concentration, and the system is incubated. […] Christmas, et al, supra).
Selectivity is expressed as the ratio of the inhibitory activity against MAO-B versus the inhibitory activity against MAO-A.

MAO [2] = assay: Inhibition of MAO - Ex vivo, rat (14C p-tyramine substrate); format: in vivo; conditions: for % Inhibition of MAO - Duodenum / % Inhibition of MAO - Heart / % Inhibition of MAO - Liver: 0.1 mg/kg iv, 2 hr; for % Inhibition of MAO - Brain: 18 hr
Protocol: The ability of a compound of Formula I or II to inhibit MAO can be determined ex vivo by the following procedure:
The test compound is administered intraperitoneally (ip), intravenously (iv), or orally (po) to rats or mice and the animals are killed at various times after treatment. […] MAO activity is determined in the homogenates using ^14 C p-tyramine, as the substrate. […] Selectivity can be determined by repeating the above-described test using either ^14 C 5-hydroxytryptamine (for MAO-A) or ^14 C phenethylamine (for MAO-B) as the substrate for determining the % inhibition

[3] = tested on: heart rate response to p-tyramine; assay: Cheese effect: potentiation of heart-rate response to p-tyramine in rats; conditions: rat
Protocol: The following test procedure can be employed to assess the potential of a compound of Formula I or II for producing the "cheese effect":
Rats are administered an intravenous injection of the test compound at various dosage levels, and 30 minutes later the rats are challenged with several intravenous or intraduodenal dodes of p-tyramine. The heart rate response is measured.

SMILES: COc1cccc(/C(=C\F)CN)c1 [(E)-2-(3'-Methoxy)phenyl-3-fluoroallylamine]
- IC50 (MAO [1]): 5 nM
- Selectivity (ratio of inhibitory activity against MAO-B versus MAO-A) (MAO-B versus MAO-A): 4
- % Inhibition of MAO - Duodenum (MAO [2]): 90%
- % Inhibition of MAO - Heart (MAO [2]): 98%
- % Inhibition of MAO - Liver (MAO [2]): 70%

SMILES: COc1ccc(/C(=C\F)CN)cc1 [(E)-2-(4'-Methoxy)phenyl-3-fluoroallyl amine]
- % Inhibition of MAO - Duodenum (MAO [2]): 80%
- % Inhibition of MAO - Heart (MAO [2]): 50%
- % Inhibition of MAO - Liver (MAO [2]): 30%
- % Inhibition of MAO - Brain (MAO [2]; 1.0 mg/kg po): 86%
- % Inhibition of MAO - Brain (MAO [2]; 5.0 mg/kg po): 97%
- Potentiation of heart-rate response to p-tyramine ([3]; dose 0.1 (iv), p-tyramine i.d.): 2.0 fold
- Potentiation of heart-rate response to p-tyramine ([3]; dose 0.1 (iv), p-tyramine i.v.): 1.4 fold
- Potentiation of heart-rate response to p-tyramine ([3]; dose 1.0 (iv), p-tyramine i.d.): 4.6 fold
- Potentiation of heart-rate response to p-tyramine ([3]; dose 1.0 (iv), p-tyramine i.v.): 5.2 fold
- risk of producing the cheese effect (in words) ([3]; in vivo): significantly decreased risk

SMILES: NCC(=CBr)c1ccccc1 [2-phenyl-3-bromoallylamine, 2-Phenyl-3-bromoallylamine]
- IC50 (MAO [1]): 40000 nM

SMILES: COc1ccccc1/C(=C\F)CN [(E)-2-(2'-Methoxy)phenyl-3-fluoroallylamine]
- IC50 (MAO [1]): 2500 nM

SMILES: NC/C(=C/F)c1cccc(O)c1 [(E)-2-(3'-hydroxy)phenyl-3-fluoroallylamine]
- IC50 (MAO [1]): 50 nM

SMILES: NCC(=C(Br)Br)c1ccccc1 [2-phenyl-3,3-dibromoallylamine, 2-Phenyl-3,3-dibromoallylamine]
- IC50 (MAO [1]): 500000 nM

SMILES: C=C(CN)c1ccccc1 [2-phenylallylamine, 2-Phenylallylamine]
- IC50 (MAO [1]): 400000 nM

SMILES: C=C(CN)c1cccc(O)c1 [2-(3-hydroxy)phenylallylamine, 2-(3'-Hydroxy)phenylallylamine]
- IC50 (MAO [1]): 250 nM

SMILES: C=C(CN)c1cccc(OC)c1 [2-(3-methoxy)phenylallylamine, 2-(3'-Methoxy)phenylallylamine]
- IC50 (MAO [1]): 10000 nM

SMILES: NCC(=C(F)F)c1ccccc1 [2-phenyl-3,3-difluoroallylamine, 2-Phenyl-3,3-difluoroallylamine]
- IC50 (MAO [1]): 10000 nM

Continued, in another order:

- IC50 (MAO [1]): 20 nM
SMILES: NC/C(=C/F)c1ccc(Cl)cc1 [(E)-2-(4'-Chloro)phenyl-3-fluoroallylamine]
- Selectivity (ratio of inhibitory activity against MAO-B versus MAO-A) (MAO-B versus MAO-A): 10

- IC50 (MAO [1]): 3000 nM
SMILES: COc1ccc(C/C(=C\F)CN)cc1 [(E)-2-(4'-Methoxy)benzyl-3-fluoroallylamine]
- selectivity for MAO-B as compared to MAO-A (in words) (MAO-B versus MAO-A): marked selectivity for MAO-B as compared to MAO-A
- Selectivity (ratio of inhibitory activity against MAO-B versus MAO-A) (MAO-B versus MAO-A): 500

- IC50 (MAO [1]): 7 nM
SMILES: NC/C(=C/F)c1cccc(C(F)(F)F)c1 [(E)-2-(3'-trifluoromethyl)phenyl-3-fluoroallylamine]

- IC50 (MAO [1]): 100000 nM
SMILES: NC/C(=C/Cl)c1ccccc1 [(E)-2-phenyl-3-chloroallylamine, (E)-2-Phenyl-3-chloroallylamine]

- IC50 (MAO [1]): 3000 nM
SMILES: CCNC/C(=C/F)c1cccc(OC)c1 [(E)-N-Ethyl 2-(3'-methoxy)phenyl-3-fluoroallylamine]

- IC50 (MAO [1]): 70000 nM
SMILES: CCNC/C(=C/F)c1ccc(OC)c(OC)c1 [(E)-N-ethyl 2-(3',4'-dimethoxy)phenyl-3-fluoroallylamine]

- IC50 (MAO [1]): 1000 nM
SMILES: NC/C(=C\F)c1ccccc1 [(Z)-2-phenyl-3-fluoroallylamine, (Z)-2-Phenyl-3-fluoroallylamine]

- IC50 (MAO [1]): 7500 nM
SMILES: NC/C(=C/F)Cc1ccccc1 [(E)-2-benzyl-3-fluoroallylamine, (E)-2-2-Benzyl-3-fluoroallylamine]
- selectivity for MAO-B as compared to MAO-A (in words) (MAO-B versus MAO-A): marked selectivity for MAO-B as compared to MAO-A
- Selectivity (ratio of inhibitory activity against MAO-B versus MAO-A) (MAO-B versus MAO-A): 200
